In general, EC50 refers to the concentration that produces a half-maximal response.

Experimental findings from ChEMBL document CHEMBL1255414, “Combination of V106I and V179D polymorphic mutations in human immunodeficiency virus type 1 reverse transcriptase confers resistance to efavirenz and nevirapine but not etravirine” (Antimicrob Agents Chemother, 2010) are described below.

Experiment [1] concerns Human immunodeficiency virus 1. In words: Resistance index, ratio of EC50 for recombinant HIV1 harboring reverse transcriptase V179D mutant clone to EC50 for wild type HIV1. Type of experiment: functional.
Experiment [2] relates to Human immunodeficiency virus 1. In words: Antiviral activity against recombinant HIV1 harboring reverse transcriptase V106A/V179D mutant clone infected in MAGIC-5 cells using 5-bromo4-chloro-3-indolyl-beta-D-galactopyranoside staining based light microscopy. Type of experiment: functional, organism-based. As to conditions: Human immunodeficiency virus 1, MAGIC-5.
The subject of experiment [3] is Human immunodeficiency virus 1. In words: Antiviral activity against recombinant HIV1 harboring reverse transcriptase V106I mutant clone infected in MAGIC-5 cells using 5-bromo4-chloro-3-indolyl-beta-D-galactopyranoside staining based light microscopy. The class given is functional, organism-based. As to conditions: Human immunodeficiency virus 1, MAGIC-5.
Experiment [4] concerns Human immunodeficiency virus 1. In words: Resistance index, ratio of EC50 for recombinant HIV1 harboring reverse transcriptase V106I mutant clone to EC50 for wild type HIV1. Type of experiment: functional.
The subject of experiment [5] is Human immunodeficiency virus 1. In words: Antiviral activity against wild type HIV1 infected in MAGIC-5 cells using 5-bromo4-chloro-3-indolyl-beta-D-galactopyranoside staining based light microscopy. As to conditions: Human immunodeficiency virus 1, MAGIC-5. The class given is functional, organism-based.
Experiment [6] deals with Human immunodeficiency virus 1. In words: Resistance index, ratio of EC50 for recombinant HIV1 harboring reverse transcriptase V106A mutant clone to EC50 for wild type HIV1. The class given is functional.
Experiment [7] concerns Human immunodeficiency virus 1. In words: Resistance index, ratio of EC50 for recombinant HIV1 harboring reverse transcriptase V106A/V179D mutant clone to EC50 for wild type HIV1. The class given is functional.
Experiment [8] has as its system Human immunodeficiency virus 1. In words: Resistance index, ratio of EC50 for recombinant HIV1 harboring reverse transcriptase V106I/V179D mutant clone to EC50 for wild type HIV1. Type of experiment: functional.
Experiment [9] deals with Human immunodeficiency virus 1. In words: Antiviral activity against recombinant HIV1 harboring reverse transcriptase V106I/V179D mutant clone infected in MAGIC-5 cells using 5-bromo4-chloro-3-indolyl-beta-D-galactopyranoside staining based light microscopy. The class given is functional, organism-based. The conditions noted are these: Human immunodeficiency virus 1, MAGIC-5.

In experiment [10] the test system is Human immunodeficiency virus 1. In words: Antiviral activity against recombinant HIV1 harboring reverse transcriptase V106A mutant clone infected in MAGIC-5 cells using 5-bromo4-chloro-3-indolyl-beta-D-galactopyranoside staining based light microscopy. The conditions noted are these: Human immunodeficiency virus 1, MAGIC-5. The class given is functional, organism-based.

Experiment [11] deals with Human immunodeficiency virus 1. In words: Antiviral activity against recombinant HIV1 harboring reverse transcriptase V179D mutant clone infected in MAGIC-5 cells using 5-bromo4-chloro-3-indolyl-beta-D-galactopyranoside staining based light microscopy. The class given is functional, organism-based. The conditions noted are these: Human immunodeficiency virus 1, MAGIC-5.

Turning to `Cc1ccnc2c1NC(=O)c1cccnc1N2C1CC1` [NEVIRAPINE], the “Ratio EC50” value came out at 2.6 in experiment [1]; 0.4 in experiment [4]; 69 in experiment [6]; 91 in [7]; 7 in experiment [8]. The EC50 amounted to 4530 nM in [2]; 20 nM in [3]; 50 nM in experiment [5]; 370 nM in experiment [9]; 3430 nM in experiment [10]; 130 nM in [11].

For the compound `Cc1cc(C#N)cc(C)c1Oc1nc(Nc2ccc(C#N)cc2)nc(N)c1Br` [ETRAVIRINE], the “Ratio EC50” value in [1] is reported as 1.6; in experiment [4] it was 1.3; in experiment [6], 0.4; in experiment [7], 1.2; in experiment [8] it was 2. Besides, the EC50 in experiment [2] stood at 1.4 nM; in [3], 1.5 nM; in experiment [5] it was 1.2 nM; in experiment [9] it was 2.4 nM; in [10], 0.5 nM; in experiment [11], 1.9 nM.

On to `O=C1Nc2ccc(Cl)cc2[C@@](C#CC2CC2)(C(F)(F)F)O1` [EFAVIRENZ], for which the EC50 was found to be 13 nM in [2]; 3 nM in [3]; 29 nM in experiment [9]; 3 nM in experiment [10]; 4 nM in [11].
